Results from patent US20030224942A1, “Alkylamino-1,3,5-triazines, processes for their preparation and their use as herbicides and plant growth regulators” (priority 2001, published 2003).

How the values were obtained:
[1] = system: Chenopodium spp., Papaver spp., Polygonum spp., Veronica spp. or Viola spp.; experiment: Post-emergence effect on weeds (greenhouse pot test, visual scoring); type: in vivo, monocotyledonous and dicotyledonous weeds; settings: treated at three-leaf stage; visual scoring after about 3 to 4 weeks; application rate of 0.5 kg and less of active substance per hectare
[2] = system: Cyperus spp., Echinochloa spp., Digitaria spp., Sagitaria spp. and Scirpus spp.; experiment: Action on harmful plants in rice (paddy rice conditions, visual scoring); type: in vivo, typical rice weeds (gramineous and broad-leaved); settings: applied into the dammed water, visual scoring about three weeks after application
Procedure, shortened: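 Under paddy conditions with 2-3 cm dammed water, transplanted and sown rice plus weeds were treated at three-leaf stage (E. crus-galli at 1.5 leaves). Pots stayed in greenhouse under optimum growth conditions for the test period, with visual assessment of damage.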

Structure (SMILES)	herbicidal activity post-emergence against harmful plants [1]	herbicidal activity against harmful plants which are typical for rice crops [2]
CC(F)c1nc(N)nc(NC(C)c2ccc(C(F)=C(F)F)cc2)n1 (stereo not drawn) [Product P22.1568]	very good herbicidal activity	very good herbicidal activity
CC#Cc1ccc(C(Nc2nc(N)nc(C(C)F)n2)C2CC2)cc1 (stereo not drawn) [Product P24.1583]	very good herbicidal activity	very good herbicidal activity
C#Cc1cccc(C(Nc2nc(N)nc(C(F)CC)n2)C2CC2)c1 (stereo not drawn) [Product P29.1579]	very good herbicidal activity	very good herbicidal activity
CC#Cc1cccc(CNc2nc(N)nc(CC)n2)c1 [Product P6.1582]	very good herbicidal activity	very good herbicidal activity
C#Cc1c(F)cc(C(Nc2nc(N)nc(C(C)C)n2)C2CC2)cc1F (stereo not drawn) [Product P14.352]	very good herbicidal activity	very good herbicidal activity
CC(F)c1nc(N)nc(NC(c2ccc(C3CC3)cc2)C2CC2)n1 (stereo not drawn) [Product P24.1604]	very good herbicidal activity	very good herbicidal activity
CC(F)c1nc(N)nc(NC(C)c2cccc(C3CC3)c2)n1 (stereo not drawn) [Product P22.1603]	very good herbicidal activity	very good herbicidal activity
C#Cc1cc(CNc2nc(N)nc(C(F)CC)n2)ccc1F (stereo not drawn) [Product P26.309]	very good herbicidal activity	very good herbicidal activity
C#Cc1cccc(C(Nc2nc(N)nc(C(C)C)n2)C2CC2)c1 (stereo not drawn) [Product P14.1579]	very good herbicidal activity	very good herbicidal activity
CC(Nc1nc(N)nc(C(C)(C)F)n1)c1ccc(C2CC2)cc1 (stereo not drawn) [Product P17.1604]	very good herbicidal activity	very good herbicidal activity
CCC(F)c1nc(N)nc(NCc2cc(F)c(C3CC3)c(F)c2)n1 (stereo not drawn) [Product P26.960]	very good herbicidal activity	very good herbicidal activity
C#Cc1c(F)cc(C(C)Nc2nc(N)nc(C(F)CC)n2)cc1F (stereo not drawn) [Product P27.352]	very good herbicidal activity	very good herbicidal activity
Cc1nc(N)nc(NC(c2cccc(C(F)=C(F)F)c2)C2CC2)n1 (stereo not drawn) [Product P4.1567]	very good herbicidal activity	very good herbicidal activity
C#Cc1cccc(C(Nc2nc(N)nc(CC)n2)C2CC2)c1 (stereo not drawn) [Product P9.1579]	very good herbicidal activity	very good herbicidal activity
C#Cc1ccc(C(Nc2nc(N)nc(C(C)(C)F)n2)C2CC2)cc1 (stereo not drawn) [Product P19.1580]	very good herbicidal activity	very good herbicidal activity
C#Cc1c(F)cc(C(C)Nc2nc(N)nc(C(C)(C)F)n2)cc1F (stereo not drawn) [Product P17.352]	very good herbicidal activity	very good herbicidal activity
CC#Cc1cccc(C(C)Nc2nc(C)nc(N)n2)c1 (stereo not drawn) [Product P2.1582]	very good herbicidal activity	very good herbicidal activity
CC#Cc1cccc(C(Nc2nc(N)nc(CC)n2)C2CC2)c1 (stereo not drawn) [Product P9.1582]	very good herbicidal activity	very good herbicidal activity
CC#Cc1cc(C(C)Nc2nc(N)nc(C(C)(C)F)n2)cc(C#CC)c1F (stereo not drawn) [Product P17.450]	very good herbicidal activity	very good herbicidal activity
CCC(F)c1nc(N)nc(NCc2cccc(C(F)=C(F)F)c2)n1 (stereo not drawn) [Product P26.1567]	very good herbicidal activity	very good herbicidal activity
Cc1nc(N)nc(NCc2cc(F)c(C3CC3)c(F)c2)n1 [Product P1.960]	very good herbicidal activity	very good herbicidal activity

Structure (SMILES)	herbicidal activity post-emergence against harmful plants [1]	herbicidal activity against harmful plants which are typical for rice crops [2]
CC#Cc1ccc(CNc2nc(N)nc(CC)n2)cc1 [Product P6.1583]	very good herbicidal activity	very good herbicidal activity
C#Cc1ccc(C(C)Nc2nc(N)nc(C(F)CC)n2)cc1 (stereo not drawn) [Product P27.1580]	very good herbicidal activity	very good herbicidal activity
CCc1nc(N)nc(NCc2ccc(F)c(C(F)=C(F)F)c2)n1 [Product P6.5]	very good herbicidal activity	very good herbicidal activity
C#Cc1ccc(CNc2nc(N)nc(C(F)CC)n2)cc1 (stereo not drawn) [Product P26.1580]	very good herbicidal activity	very good herbicidal activity
C#Cc1cc(C#C)cc(C(C)Nc2nc(N)nc(CC)n2)c1 (stereo not drawn) [Product P7.369]	very good herbicidal activity	very good herbicidal activity
CC(C)c1nc(N)nc(NC(C)c2ccc(F)c(C3CC3)c2)n1 (stereo not drawn) [Product P12.916]	very good herbicidal activity	very good herbicidal activity
CC(F)c1nc(N)nc(NCc2ccc(C3CC3)cc2)n1 (stereo not drawn) [Product P21.1604]	very good herbicidal activity	very good herbicidal activity
CC#Cc1c(F)cc(CNc2nc(C)nc(N)n2)cc1F [Product P1.428]	very good herbicidal activity	very good herbicidal activity
Cc1nc(N)nc(NCc2ccc(C3CC3)cc2)n1 [Product P1.1604]	very good herbicidal activity	very good herbicidal activity
CC(F)c1nc(N)nc(NC(C)c2cccc(C(F)=C(F)F)c2)n1 (stereo not drawn) [Product P22.1567]	very good herbicidal activity	very good herbicidal activity
CCC(F)c1nc(N)nc(NC(C)c2ccc(C3CC3)cc2)n1 (stereo not drawn) [Product P27.1604]	very good herbicidal activity	very good herbicidal activity
CC(C)c1nc(N)nc(NC(c2cccc(C3CC3)c2)C2CC2)n1 (stereo not drawn) [Product P14.1603]	very good herbicidal activity	very good herbicidal activity
C#Cc1ccc(C(C)Nc2nc(N)nc(CC)n2)cc1F (stereo not drawn) [Product P7.1620]	very good herbicidal activity	very good herbicidal activity
C#Cc1cc(C#C)cc(C(C)Nc2nc(N)nc(C(C)(C)F)n2)c1 (stereo not drawn) [Product P17.369]	very good herbicidal activity	very good herbicidal activity
C#Cc1cccc(CNc2nc(N)nc(C(C)(C)F)n2)c1 [Product P16.1579]	very good herbicidal activity	very good herbicidal activity
CC(C)(F)c1nc(N)nc(NCc2cccc(C(F)=C(F)F)c2)n1 [Product P16.1567]	very good herbicidal activity	very good herbicidal activity
C#Cc1c(F)cc(CNc2nc(N)nc(C(C)(C)F)n2)cc1F [Product P16.352]	very good herbicidal activity	very good herbicidal activity
CCC(F)c1nc(N)nc(NC(c2cccc(C(F)=C(F)F)c2)C2CC2)n1 (stereo not drawn) [Product P29.1567]	very good herbicidal activity	very good herbicidal activity
CCc1nc(N)nc(NCc2cc(F)c(C(F)=C(F)F)c(F)c2)n1 [Product P6.49]	very good herbicidal activity	very good herbicidal activity
C#Cc1cccc(CNc2nc(N)nc(C(C)C)n2)c1 [Product P11.1579]	very good herbicidal activity	very good herbicidal activity
CC#Cc1ccc(CNc2nc(N)nc(C(C)F)n2)cc1 (stereo not drawn) [Product P21.1583]	very good herbicidal activity	very good herbicidal activity
